In patent US20070208003A1, “COMPOUNDS AND METHODS FOR TREATING DYSLIPIDEMIA” (priority 2004, published 2007):

System: transgenic mice that express both human CETP and human apolipoprotein A-1
Assay: Assay of plasma lipids in vivo: elevation of HDL cholesterol
Settings: single oral dose 30 mg/kg; at 8 hr; serum HDL cholesterol relative to control; transgenic mice expressing human CETP and human apolipoprotein A-1
Experimental: Assay of Plasma Lipids In Vivo.
Activity of compounds of this invention in vivo can be determined by the level of elevation of HDL cholesterol relative to control by a given amount of compound in a CETP-containing animal species. A strain of transgenic mice that express both human CETP and human apolipoprotein A-1 (Taconic, Germantown, N.Y.) is used to test compounds of this invention. Test compounds are administered once orally in selected aqueous or oil based vehicles. At various times after dosing, ranging from 4 h to 24 h, blood is obtained. Blood is allowed to clot and serum is obtained by centrifugation. HDL cholesterol levels in the serum is determined by HDL-C plus reagents (Roche/Hitachi, Indianapolis, Ind.) with a clinical chemistry analyzer (Roche/Hitachi, Indianapolis, Ind.). Additional serum lipids can be analyzed by enzymatic methods. Lipids in the VLDL, LDL and HDL fractions are analyzed by enzymatic methods after precipitation or size exclusion chromatography.

Cc1nc2c(cc1C(F)(F)F)N(C(=O)OC(C)C)CCCC2N(Cc1cc(C(F)(F)F)cc(C(F)(F)F)c1)c1nnn(C)n1 (racemic) [Example 14]
% HDL cholesterol increase: 91%
